ChEMBL document CHEMBL3507680, “University of Dundee, Gates Library screen for HepG2 cell viability”

Assay: Human HepG2 cell viability assay in 384 well format
Assay type: toxicity, cell-based
Design: dose 125 nL, time 70.5 hour; concentration not given beside the values
Conditions: HepG2 cells, read-out: Inhibition

Going from `COc1nccnc1N1CCN(Cc2cccc(C)c2)C(=O)C1` to `COC(=O)c1ccc(N2CCN(C(=O)c3cc(C)no3)C(C)C2)cc1` (configuration not stated), the cytotoxicity at 70.5 h falls from 7% to -12%.

Compared with `CN1CCN(C2CCN(CCCOc3ccc(F)cc3)CC2)C1=O`, `CC(CN1CCOCC1)NC1CCN(Cc2cccc(O)c2)CC1` (configuration not stated) is lower in cytotoxicity at 70.5 h: 19.6% for the first, -8.8% for the second.

Going from `O=C(NCCc1cccs1)N1CCCC1CCCO` (configuration not stated) to `CCOC(=O)CC1CCCCN1C(=O)CCc1cc(Cl)no1` (configuration not stated), the cytotoxicity at 70.5 h rises from -9.42% to -1.88%.

Compared with `CCc1nc(N)nc(N(C)Cc2nncn2CCOC)c1C`, `CCN(CC)CCCNc1nc(C)nc2c1CCN(C)C2` is lower in cytotoxicity at 70.5 h: 11.8% for the first, -1.66% for the second.

Going from `O=C(NCc1ccc(Br)c(F)c1)Nc1cn[nH]c1` to `Cc1ccc(NC(=O)N(C)Cc2cnn(C)c2)c(C)c1`, the cytotoxicity at 70.5 h rises from -22.7% to -10.1%.

Going from `COCCS(=O)(=O)NCc1ccc(N(C)C)c(C)c1` to `Cc1cc(C(=O)N(CC(=O)O)CC(C)C)ccc1F`, the cytotoxicity at 70.5 h falls from -7.82% to -7.96%.

Compared with `COCC(=O)N1CCCN(Cc2c(C)nc3ccc(Cl)cn23)CC1`, `Cc1ccsc1CN1CCc2nc3ccsc3c(=O)n2CC1` is lower in cytotoxicity at 70.5 h: 2.35% for the first, -4.51% for the second.

First: CN(C)C[C@H]1OC[C@@H]2CCN(C(=O)c3ccc[nH]3)C[C@@H]21
Second: CC(C)S(=O)(=O)NCC1CCCN(C(=O)c2ccc(F)cc2)C1 (configuration not stated)
The cytotoxicity at 70.5 h of the first is lower: -4.7% for the first, 9.08% for the second.

Going from `Cc1nn(CC(=O)O)c(C)c1NS(=O)(=O)c1cc2ccccc2s1` to `Cc1ccc(S(=O)(=O)NC(=O)C2(c3ccccc3)CCC2)c(C)c1`, the cytotoxicity at 70.5 h falls from 24.3% to -10.7%.

Going from `O=S1(=O)c2ccccc2C(O)CN1CCO` (configuration not stated) to `CCN(CC1CCCCO1)C(=O)CCNC(=O)c1ccccc1F` (configuration not stated), the cytotoxicity at 70.5 h falls from -5.7% to -11.6%.

Going from `CNC(=O)C1CCN(CC(=O)Nc2cc(C(C)C)no2)CC1` to `COCc1cc(C[C@@H]2CC[C@H](O)[C@@H](CNCC(C)C)O2)no1`, the cytotoxicity at 70.5 h rises from -1.42% to -0.483%.

Going from `CCS(=O)(=O)N(C)CCCNC(=O)c1cc(Cl)cc2cccnc12` to `O=C(CCc1nc2cc(Br)cnc2[nH]1)NCCCn1ccnc1`, the cytotoxicity at 70.5 h falls from -11% to -17.5%.

Compared with `O=C(NCC1CC1)C1=NOC2(CCN(Cc3ccc(Cl)c(F)c3)C2)C1` (configuration not stated), `O=C(c1cnco1)N1CCC(Cc2ccc3ncccc3c2)CC1` is higher in cytotoxicity at 70.5 h: -7.64% for the first, 5.02% for the second.

Going from `CN(C)c1cc(C(=O)N2CCN(c3nccs3)CC2)ccn1` to `N#CC1(C(=O)N2CCCN(c3nccs3)CC2)CCCCC1`, the cytotoxicity at 70.5 h rises from -13.8% to -4.97%.

First: CCn1nc2c(cc1=O)CN(CCCN1CCCC1=O)CC2
Second: CCc1nc2c(N3CCC4(CC3)CC(=O)N(CC(C)C)C4)ncnc2o1
The cytotoxicity at 70.5 h of the first is higher: 16.8% for the first, 1.84% for the second.

First: CCC[C@H]1CN(C(=O)CCn2ccccc2=O)C[C@@H]1NS(C)(=O)=O
Second: CNS(=O)(=O)c1ccccc1N1CCN(C(=O)C(C)C)CC1
The cytotoxicity at 70.5 h of the first is lower: -16.2% for the first, -5.83% for the second.

Compared with `CS(=O)(=O)N1CCC(Cc2cnc(Br)cn2)CC1`, `CS(=O)(=O)c1cc(Cl)cnc1C1CCN(C(=O)C2CCOCC2)CC1` is higher in cytotoxicity at 70.5 h: -5.81% for the first, 9.7% for the second.

Going from `Cc1noc2ncc(C(=O)N3CCCC(n4cccn4)C3)cc12` (configuration not stated) to `c1cnc(N2CCCC(c3cncc(-n4ccnc4)n3)C2)nc1` (configuration not stated), the cytotoxicity at 70.5 h rises from -2.98% to 13.4%.

First: Cc1ccc(OCc2cccc(C(=O)N(C)C(C)CC#N)c2)cn1 (configuration not stated)
Second: N#CCCN(Cc1cccnc1)C(=O)c1cccc(-n2cnnn2)c1
The cytotoxicity at 70.5 h of the first is higher: 0.55% for the first, -8.57% for the second.

First: COCCN1CCOCC12CCN(c1nccs1)CC2
Second: CN1C[C@H]2CNC[C@@]2(C(=O)NC2CCN(c3ncccc3C#N)CC2)C1
The cytotoxicity at 70.5 h of the first is lower: -20.8% for the first, 1.46% for the second.

Compared with `COc1ccc(C2Nc3ccccc3C3=NCCCN32)cc1OC` (configuration not stated), `CC(C)c1nnc2n1CCN(Cc1ncc(-c3ccccc3)o1)C2` is lower in cytotoxicity at 70.5 h: 7.54% for the first, -10.5% for the second.

Compared with `Cc1nnc([C@@]23CCO[C@@H]2CCN(S(=O)(=O)c2cccnc2)C3)o1`, `Cc1ccc(S(=O)(=O)Cc2nnc(C)n2C)cc1` is higher in cytotoxicity at 70.5 h: -5.15% for the first, -2.49% for the second.

Going from `Cc1ccc(N2C(=O)N[C@@H]3CCN(C(=O)C4CC4)[C@@H]3C2=O)cc1` to `CN1CCC/C1=N\S(=O)(=O)c1ccc(NC(=O)c2ccc(Cl)cc2)cc1`, the cytotoxicity at 70.5 h rises from -15.3% to 1.42%.

Going from `CC(C)c1nn(C)c(Cl)c1CNCc1cccnc1N(C)C` to `Cc1cnn(CCNCc2cc(C)no2)c1`, the cytotoxicity at 70.5 h rises from -9.54% to 2.88%.

Going from `O=S(=O)(NCCSc1nccn1C1CC1)c1ccccc1` to `CCC(O)CNC(=O)C1(N(C)Cc2ccccc2)Cc2ccccc2C1` (configuration not stated), the cytotoxicity at 70.5 h falls from -3.08% to -3.52%.

Going from `CN(C)[C@H]1CCCCN(C(=O)CCc2csc(N)n2)C1` to `CC(NC(=O)Nc1nccs1)C(=O)NC1CCCC1` (configuration not stated), the cytotoxicity at 70.5 h rises from -6.16% to 0.896%.

Compared with `CC(C)Cc1nc(CN2CCc3onc(-c4cccc(F)c4)c3C2)no1`, `CN(CC(C)(C)O)C(=O)Nc1ccc(F)c(-n2cccc2)c1` is lower in cytotoxicity at 70.5 h: -2.69% for the first, -9.2% for the second.

First: CCn1cnnc1CNC(=O)NCC(O)c1ccc(OC)cc1 (configuration not stated)
Second: CCC(C#N)NC(=O)CCNC(=O)C(C)(C)C (configuration not stated)
The cytotoxicity at 70.5 h of the first is lower: -4.35% for the first, 0.625% for the second.

Work on `O=C(CN1C(=O)CCC1=O)NCc1nn(C2CCCC2)c2c1CCCC2` yielded a cytotoxicity at 70.5 h of -2.19%.
